Tests used:
Type in all cases: in vivo, Erysiphe graminis
powdery mildew in wheat = test: Control of powdery mildew on potted wheat plants in growth chamber; design: ED90: unit not given beside the values; settings: for Observed Control (%): wheat
Protocol: (§1) β Amionbutyric acid and component (b) fungicides were tested against fungi on potted plants, as follows:
(§2) 12-15 seeds were sown in a pot of 0.5 liter in a mixture of ground, sand, and Perlite in a ratio of 1;1;1. After two weeks in a growth chamber the plants were used for experimentation only when the first true leave appeared. Spraying was done until runoff; waiting in the growth chamber for 24 hours. Inoculations of the fungus was done via dusting the plants with plants already infected. The then dusted plants were incubated 7 to 10 days at 20° in a growth chamber with an exposure of 12 hours to light at an intensity of 7000-800 lucs. The results of the fungul growth was done via visual estimation (0 to 4) of the infected leaves. The existence of synergism between the active components was calculated according to the Abbott Equation. [formula]
(§3) a=% control b the β-arninobutyric acid.
(§4) b=% control by the second component.
(§5) and where the synergism factor. SF is calculated thusly [formula]

[1] = system: powdery mildew in cucumber; test: Control of powdery mildew on potted cucumber plants in growth chamber; settings: for Observed Control (%): cucumber
Protocol: as §1, §2, §3, §4, §5

powdery mildew in barley = test: Control of powdery mildew on potted barley plants in growth chamber
Protocol: as §1, §2, §3, §4, §5

Fc1ccc([C@]2(Cn3cncn3)O[C@H]2c2ccccc2Cl)cc1 (racemic) [Epoxiconazole, epoxiconazole]
ED90 (powdery mildew in wheat; wheat (Table 6)): 0.5 | Observed Control (%) (powdery mildew in wheat; Epoxiconazole 0.15 ppm alone): 25% | Observed Control (%) (powdery mildew in wheat; Epoxiconazole 0.6 ppm alone): 98% | Observed Control (%) (powdery mildew in wheat; Epoxiconazole 2.5 ppm alone): 100% | Observed Control (%) (powdery mildew in wheat; Epoxiconazole 10 ppm alone): 100% | ED90 ([1]; cucumber (Table 9)): 5.5 | Observed Control (%) ([1]; Epoxiconazole 2.5 ppm alone): 60% | Observed Control (%) ([1]; Epoxiconazole 5 ppm alone): 96% | Observed Control (%) ([1]; Epoxiconazole 10 ppm alone): 96% | Observed Control (%) ([1]; Epoxiconazole 20 ppm alone): 100%

CCCN(CCOc1c(Cl)cc(Cl)cc1Cl)C(=O)n1ccnc1 [Prochloraz, prochloraz]
Observed Control (%) (powdery mildew in barley; Prochloraz 1.25 ppm alone): 43% | Observed Control (%) (powdery mildew in barley; Prochloraz 5 ppm alone): 67% | Observed Control (%) (powdery mildew in barley; Prochloraz 10 ppm alone): 74% | Observed Control (%) (powdery mildew in wheat; Prochloraz 1.25 ppm alone): 33% | Observed Control (%) (powdery mildew in wheat; Prochloraz 5 ppm alone): 42% | Observed Control (%) (powdery mildew in wheat; Prochloraz 10 ppm alone): 52%

CCCC1COC(Cn2cncn2)(c2ccc(Cl)cc2Cl)O1 (stereo not shown) [Propiconazole, propiconazole]
Observed Control (%) (powdery mildew in barley; Propiconazole 0.5 ppm alone): 75% | Observed Control (%) (powdery mildew in barley; Propiconazole 1 ppm alone): 88% | Observed Control (%) (powdery mildew in barley; Propiconazole 2 ppm alone): 94% | Observed Control (%) (powdery mildew in wheat; Propiconazole 0.5 ppm alone): 25% | Observed Control (%) (powdery mildew in wheat; Propiconazole 1 ppm alone): 50% | Observed Control (%) (powdery mildew in wheat; Propiconazole 2 ppm alone): 83%

CC(C)(C)C(O)(CCc1ccc(Cl)cc1)Cn1cncn1 (stereo not shown) [Tebuconazole, tebuconazole]
ED90 (powdery mildew in wheat; wheat (Table 5)): 1.0 | Observed Control (%) (powdery mildew in wheat; Tebuconazole 0.15 ppm alone): 25% | Observed Control (%) (powdery mildew in wheat; Tebuconazole 0.6 ppm alone): 63% | Observed Control (%) (powdery mildew in wheat; Tebuconazole 2.5 ppm alone): 100% | Observed Control (%) (powdery mildew in wheat; Tebuconazole 10 ppm alone): 100% | ED90 ([1]; cucumber (Table 8)): 14 | Observed Control (%) ([1]; Tebuconazole 2.5 ppm alone): 0% | Observed Control (%) ([1]; Tebuconazole 5 ppm alone): 80% | Observed Control (%) ([1]; Tebuconazole 10 ppm alone): 80% | Observed Control (%) ([1]; Tebuconazole 20 ppm alone): 92%

CC(C)(C)C(O)C(Oc1ccc(Cl)cc1)n1cncn1 (stereo not shown) [Triadimenol, triadimenol]
ED90 (powdery mildew in wheat; wheat (Table 7)): 1.0 | Observed Control (%) (powdery mildew in wheat; Triadimenol 0.15 ppm alone): 25% | Observed Control (%) (powdery mildew in wheat; Triadimenol 0.6 ppm alone): 98% | Observed Control (%) (powdery mildew in wheat; Triadimenol 2.5 ppm alone): 100% | Observed Control (%) (powdery mildew in wheat; Triadimenol 10 ppm alone): 100% | ED90 ([1]; cucumber (Table 10)): 9.4 | Observed Control (%) ([1]; Triadimenol 2.5 ppm alone): 60% | Observed Control (%) ([1]; Triadimenol 5 ppm alone): 88% | Observed Control (%) ([1]; Triadimenol 10 ppm alone): 96% | Observed Control (%) ([1]; Triadimenol 20 ppm alone): 96%

CC(N)CC(=O)O (stereo not drawn) [β-Aminobutyric acid, β-aminobutyric acid]
Observed Control (%) (powdery mildew in barley; BABA 16 ppm alone (Table 3)): 0% | Observed Control (%) (powdery mildew in barley; BABA 62 ppm alone (Table 3)): 50% | Observed Control (%) (powdery mildew in barley; BABA 125 ppm alone (Table 1)): 14% | Observed Control (%) (powdery mildew in barley; BABA 250 ppm alone (Table 1)): 14% | Observed Control (%) (powdery mildew in barley; BABA 250 ppm alone (Table 3)): 38% | Observed Control (%) (powdery mildew in barley; BABA 500 ppm alone (Table 1)): 14% | Observed Control (%) (powdery mildew in barley; BABA 1000 ppm alone (Table 1)): 14% | Observed Control (%) (powdery mildew in barley; BABA 1000 ppm alone (Table 3)): 70% | ED90 (powdery mildew in wheat; wheat (Table 5)): 684 | ED90 (powdery mildew in wheat; wheat (Table 6)): 684 | ED90 (powdery mildew in wheat; wheat (Table 7)): 684 | Observed Control (%) (powdery mildew in wheat; BABA 16 ppm alone (Table 4)): 0% | Observed Control (%) (powdery mildew in wheat; BABA 62 ppm alone (Table 4)): 8% | Observed Control (%) (powdery mildew in wheat; BABA 125 ppm alone (Table 2)): 8% | Observed Control (%) (powdery mildew in wheat; BABA 125 ppm alone (Table 5)): 13% | Observed Control (%) (powdery mildew in wheat; BABA 125 ppm alone (Table 6)): 13% | Observed Control (%) (powdery mildew in wheat; BABA 125 ppm alone (Table 7)): 13% | Observed Control (%) (powdery mildew in wheat; BABA 250 ppm alone (Table 2)): 8% | Observed Control (%) (powdery mildew in wheat; BABA 250 ppm alone (Table 4)): 17% | Observed Control (%) (powdery mildew in wheat; BABA 250 ppm alone (Table 5)): 25% | Observed Control (%) (powdery mildew in wheat; BABA 250 ppm alone (Table 6)): 25% | Observed Control (%) (powdery mildew in wheat; BABA 250 ppm alone (Table 7)): 25% | Observed Control (%) (powdery mildew in wheat; BABA 500 ppm alone (Table 2)): 8% | Observed Control (%) (powdery mildew in wheat; BABA 500 ppm alone (Table 5)): 63% | Observed Control (%) (powdery mildew in wheat; BABA 500 ppm alone (Table 6)): 63% | Observed Control (%) (powdery mildew in wheat; BABA 500 ppm alone (Table 7)): 63% | Observed Control (%) (powdery mildew in wheat; BABA 1000 ppm alone (Table 2)): 17% | Observed Control (%) (powdery mildew in wheat; BABA 1000 ppm alone (Table 4)): 33% | Observed Control (%) (powdery mildew in wheat; BABA 1000 ppm alone (Table 5)): 100% | Observed Control (%) (powdery mildew in wheat; BABA 1000 ppm alone (Table 6)): 100% | Observed Control (%) (powdery mildew in wheat; BABA 1000 ppm alone (Table 7)): 100%

From US6495572B1, “Synergistic mixtures of an amino acid” (Agrogene Ltd., priority 1997, dated 2002)
